Measurements as given in the supplement of paper PMC5844555.

What was measured:
Assay in all cases: 3' UTR reporter interaction score (median-centred robust z-score of log2 firefly/Renilla activity); higher = less repression of the 3' UTR reporter
Details in all cases: HEK293T; 48 h
[1] = tested on: MYT1L
In short: (§1)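 HEK293T cells were seeded at 10,000 per well in 96-well plates and co-transfected with DharmaFECT Duo, using 100 ng of a firefly luc2P reporter carrying the gene's 3' UTR, 20 ng of Renilla pRL-TK control and 2.5 pmol of miRNA mimic. Both luciferase activities were measured 48 h after transfection. The interaction score is the log-transformed firefly/Renilla ratio, converted to a per-plate robust z-score from the median and median absolute deviation and then median-centred per miRNA, with more negative values indicating interaction. Scores were averaged across at least two independent screens.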

[2] = tested on: ZEB2
In short: as §1

[3] = tested on: RB1
In short: as §1

[4] = tested on: MYCN
In short: as §1

[5] = tested on: BRCA2
In short: as §1

[6] = tested on: PHF6
In short: as §1

[7] = tested on: PHOX2B
In short: as §1

[8] = tested on: MYB
In short: as §1

[9] = tested on: FBXW7
In short: as §1

[10] = tested on: NOTCH1
In short: as §1

[11] = tested on: TP53
In short: as §1

[12] = tested on: EZH2
In short: as §1

[13] = tested on: HRAS
In short: as §1

[14] = tested on: MYC
In short: as §1

| Sequence | 3' UTR reporter interaction score [1] | 3' UTR reporter interaction score [2] | 3' UTR reporter interaction score [3] | 3' UTR reporter interaction score [4] | 3' UTR reporter interaction score [5] | 3' UTR reporter interaction score [6] | 3' UTR reporter interaction score [7] | 3' UTR reporter interaction score [8] | 3' UTR reporter interaction score [9] | 3' UTR reporter interaction score [10] | 3' UTR reporter interaction score [11] | 3' UTR reporter interaction score [12] | 3' UTR reporter interaction score [13] | 3' UTR reporter interaction score [14] |
| --- | --- | --- | --- | --- | --- | --- | --- | --- | --- | --- | --- | --- | --- | --- |
| AAACUCUACUUGUCCUUCUGAGU | -0.888 | -1.55 | 0.409 | -0.333 | 1.32 | -0.863 | 0.571 | 0.312 | 2.09 | 0.753 | 0.757 | -0.108 | 0.16 | -0.658 |
| AAAGACAUAGGAUAGAGUCACCUC | -1.82 | 0.2 | -0.442 | -0.0475 | -0.417 | -0.548 | 0.476 | 0.438 | 1.01 | -1.33 | 0.557 | -0.299 | -0.101 | -0.142 |
| AAAGCGCUUCCCUUCAGAGUGU | -0.332 | -0.49 | -1.21 | -0.904 | -0.304 | 0.134 | 1.41 | 0.692 | 1.07 | 0.385 | 0.336 | -0.357 | -0.152 | -0.758 |
| AAAGCGCUUCCCUUUGCUGGA | 0.0314 | 0.684 | -0.977 | -0.601 | -0.221 | 0.797 | 0.212 | -0.491 | 0.199 | 0.538 | -1.12 | 0.396 | -0.256 | -0.245 |
| AAAGCGCUUCUCUUUAGAGGA | -0.414 | 0.196 | -0.785 | -0.629 | -0.521 | -0.164 | 0.331 | -0.0819 | 0.112 | 0.581 | -0.0242 | -0.591 | 0.681 | -0.0856 |
| AAAGUAGCUGUACCAUUUGC | 0.719 | 1.39 | -0.735 | 0.676 | 0.0379 | -0.00285 | -0.926 | 1.14 | 0.57 | 1.58 | 0.1 | -0.677 | -1.6 | -0.314 |
| AAAGUGCAUCCUUUUAGAGGUUU | -1.16 | 0.526 | -0.148 | 0.904 | -0.233 | -0.0516 | 0.434 | -1.97 | 0.961 | 1.67 | 0.429 | -0.589 | -0.233 | -0.372 |
| AAAGUGCAUCCUUUUAGAGUGUUAC | -1.2 | 0.599 | 0.0975 | 1.43 | -0.464 | -0.315 | -0.251 | -1.8 | 0.956 | 2.14 | 1.22 | -0.596 | 0.648 | 0.046 |
| AAAGUGCAUCUUUUUAGAGGAU | -0.436 | -0.325 | -0.176 | 1.77 | -0.243 | -0.0249 | 0.606 | -2.04 | 0.857 | 0.996 | 1.24 | -0.581 | 0.493 | 0.685 |
| AAAGUGCCUCCUUUUAGAGUGU | 0.764 | 0.00481 | -0.21 | 1.27 | -0.0588 | 1.02 | -1.07 | -0.416 | 0.988 | 0.0165 | -0.0121 | -0.239 | 0.107 | 0.329 |
| AAAGUGCUGCGACAUUUGAGCGU | -0.68 | -0.121 | 1.06 | 0.612 | 0.603 | 1.58 | 0.221 | -1.18 | 0.296 | 1.03 | -1.1 | -1.36 | 0.79 | 0.745 |
| AAAGUGCUUCCCUUUGGACUGU | -1.48 | -0.113 | 1.36 | -0.799 | 0.671 | 1.36 | 0.0276 | -1.07 | 1.67 | 1.13 | 0.0148 | -0.72 | 0.194 | -0.227 |
| AAAGUGCUUCCUUUUAGAGGG | -0.373 | 0.554 | 0.0746 | -0.401 | -0.12 | 0.188 | 1.35 | -0.541 | 0.755 | 1.06 | 0.0995 | -1.28 | 0.261 | 0.194 |
| AAAGUGCUUCCUUUUAGAGGGUU | -0.468 | 0.894 | 1.13 | -0.338 | -0.282 | 0.00103 | 0.533 | -0.903 | 1.34 | 0.779 | -0.295 | -1.12 | 0.0494 | -0.227 |
| AAAGUGCUUCCUUUUUGAGGG | -0.441 | 0.44 | 1.02 | -0.0937 | 0.142 | -0.0231 | 1.32 | -0.87 | 0.747 | 0.985 | 0.0321 | -0.296 | -0.00896 | 0.0093 |
| AACACACCUGGUUAACCUCUUU | 0.591 | 0.382 | -0.572 | 1.21 | 0.0379 | -2.01 | 0.138 | -0.0237 | -0.274 | -1.72 | 0.317 | 0.419 | 0.473 | -0.499 |
| AACAGGUGACUGGUUAGACAA | -0.793 | -0.428 | -0.637 | -1.32 | -0.352 | -0.792 | 2.14 | -0.0471 | 1.13 | 1.15 | -0.34 | 0.144 | 0.125 | -1.37 |

| Sequence | 3' UTR reporter interaction score [1] | 3' UTR reporter interaction score [2] | 3' UTR reporter interaction score [3] | 3' UTR reporter interaction score [4] | 3' UTR reporter interaction score [5] | 3' UTR reporter interaction score [6] | 3' UTR reporter interaction score [7] | 3' UTR reporter interaction score [8] | 3' UTR reporter interaction score [9] | 3' UTR reporter interaction score [10] | 3' UTR reporter interaction score [11] | 3' UTR reporter interaction score [12] | 3' UTR reporter interaction score [13] | 3' UTR reporter interaction score [14] |
| --- | --- | --- | --- | --- | --- | --- | --- | --- | --- | --- | --- | --- | --- | --- |
| AACAUUCAACCUGUCGGUGAGU | 1.67 | 1.39 | 0.216 | -1.2 | -1.56 | 0.226 | 0.334 | 1.08 | 0.747 | 0.774 | -0.761 | -0.0307 | -0.974 | -0.157 |
| AACAUUCAACGCUGUCGGUGAGU | -0.0848 | -0.18 | 0.404 | -0.12 | 0.243 | -0.891 | -0.00434 | 0.057 | -0.842 | 0.193 | 0.784 | -0.146 | -0.301 | 0.478 |
| AACAUUCAUUGUUGUCGGUGGGUU | 1.2 | 1.49 | 0.277 | -0.95 | -0.763 | 0.446 | 0.761 | 0.819 | 0.226 | 0.549 | -1.07 | -0.453 | -0.818 | -0.122 |
| AACCAGCACCCCAACUUUGGAC | 0.0434 | 1.09 | -1.29 | 0.781 | -0.175 | -2.04 | -0.923 | -1.09 | -7.19 | -0.388 | 0.244 | 1.33 | 0.0381 | 0.864 |
| AACCCGUAGAUCCGAACUUGUG | -0.266 | -1.13 | 0.915 | -0.886 | 0.951 | -0.96 | -4.05 | 0.491 | -0.349 | -0.555 | 1.86 | 0.142 | 0.79 | 0.114 |
| AACCCGUAGAUCCGAUCUUGUG | -0.114 | -0.0662 | -0.24 | 0.392 | 0.969 | -0.973 | -3.27 | 1.14 | -0.496 | 0.552 | -0.247 | -0.241 | 0.465 | 1.06 |
| AACGCACUUCCCUUUAGAGUGU | 1.01 | 0.153 | 1.02 | 0.243 | 0.843 | -1.36 | -0.209 | -0.0921 | 0.611 | 0.0977 | -0.139 | 0.293 | -0.716 | -2.85 |
| AACGCGCUUCCCUAUAGAGGG | -0.267 | -0.982 | 0.667 | -1.41 | 0.644 | 0.0798 | -0.021 | -0.83 | 0.0883 | 0.382 | 1.12 | 1.38 | -1.1 | -0.143 |
| AAGCAGCUGCCUCUGAGGC | -4.53 | 1.09 | 0.293 | 0.924 | -0.823 | 0.632 | 0.758 | -1.27 | -2.92 | -0.304 | 0.187 | -1.03 | -0.819 | 1.09 |
| AAGCCUGCCCGGCUCCUCGGG | -0.815 | 1.11 | -0.201 | -0.588 | 0.422 | -0.0107 | 0.478 | 0.0778 | 0.255 | -0.439 | -1.82 | -0.223 | 0.291 | 0.642 |
| AAGCUGCCAGUUGAAGAACUGU | -1.31 | 0.607 | 0.935 | -0.291 | -0.407 | -0.206 | 0.0996 | 0.23 | -0.354 | 1.36 | -0.365 | -0.11 | 0.475 | -0.252 |
| AAGGAGCUCACAGUCUAUUGAG | 0.551 | 1.75 | 0.838 | 1.38 | -1.14 | -0.478 | 0.65 | 1.45 | 0.924 | -1.13 | -1.32 | -0.897 | 0.291 | -0.238 |
| AAGUGCUGUCAUAGCUGAGGUC | -0.819 | 1.38 | 1.65 | 1.22 | 0.528 | 0.918 | -0.113 | -0.62 | 0.564 | -0.478 | 0.0875 | -0.608 | 0 | 0.212 |
| AAGUGCUUCCUUUUAGAGGGUU | 0.457 | 0.00821 | 1.62 | 0.896 | -0.82 | 1.07 | 0.633 | -0.72 | 0.635 | 0.466 | -1 | -1.25 | -0.113 | -0.869 |
| AAUAAUACAUGGUUGAUCUUU | -0.318 | -1.86 | -0.0974 | -0.572 | -0.146 | 1.16 | -0.121 | 0.0772 | -0.364 | -0.442 | -0.77 | 0.433 | -0.598 | 0.609 |
| AAUAUUAUACAGUCAACCUCU | 0 | 0.391 | -1.29 | 1.48 | -1.63 | -1.02 | 0.408 | -0.218 | 0.854 | 3.57 | 0.359 | -0.324 | -0.762 | 0.0661 |
| AAUCAUACACGGUUGACCUAUU | 0.0899 | -1.95 | -0.342 | 0.277 | -0.246 | -0.4 | -0.199 | 0.393 | 0.544 | -0.221 | -0.0204 | 0.236 | -0.256 | -0.182 |
